Experimental data: ChEMBL document CHEMBL2375317, “Heterocyclic bismuth carboxylates based on a diphenyl sulfone scaffold: synthesis and antifungal activity against Saccharomyces cerevisiae” (Eur J Med Chem, 2013)

System: Saccharomyces cerevisiae
Assay: Antifungal activity against Saccharomyces cerevisiae W303-1A at 30 mM after 48 hrs
Format: functional, organism-based

Substance	inhibition zone (IZ) [mm]
2,8-Dihydroxy-10-chlorophenothiabismine 5,5-dioxide	8
10-(1,3-Dibromoazulene-2-carboxy)phenothiabismine 5,5-dioxide	12
10-(1,3-Dichloroazulene-2-carboxy)phenothiabismine 5,5-dioxide	13
10-(1-Naphthoyloxy)phenothiabismine 5,5-dioxide	13
10-(2-Acetoxybenzoyloxy)phenothiabismine 5,5-dioxide	12
10-(2-Naphthoyloxy)phenothiabismine 5,5-dioxide	12
10-(4-Acetoxybenzoyloxy)phenothiabismine 5,5-dioxide	17
10-(4-Aminobenzoyloxy)phenothiabismine 5,5-dioxide	15
10-(4-Nitrobenzoyloxy)phenothiabismine 5,5-dioxide	17
10-(9-Anthranoyloxy)phenothiabismine 5,5-dioxide	14
10-(Azulene-1-carboxy)phenothiabismine 5,5-dioxide	11
10-(Azulene-2-carboxy)phenothiabismine 5,5-dioxide	14
10-(Azulene-6-carboxy)phenothiabismine 5,5-dioxide	12
10-(Benzoyloxy)phenothiabismine 5,5-dioxide	17
10-(Cinnamoyloxy)phenothiabismine 5,5-dioxide	14
10-(Indol-3-acetoxy)phenothiabismine 5,5-dioxide	13
10-(N-Phthalylglycyloxy)phenothiabismine 5,5-dioxide	12
10-(Nicotinoyloxy)phenothiabismine 5,5-dioxide	14
10-(p-tolyl)benzo[b][1,4]benzothiabismine 5,5-dioxide	0
10-Chloro-2-phenylphenothiabismine 5,5-dioxide	0
10-Chloro-2-tert-butylphenothiabismine 5,5-dioxide	0
10-chlorobenzo[b][1,4]benzothiabismine 5,5-dioxide	18
tert-butyl-[2-[tert-butyl(dimethyl)silyl]oxy-10-chloro-5,5-dioxo-benzo[b][1,4]benzothiabismin-8-yl]oxy-dimethyl-silane	0
